Assays:
Type in all cases: in vivo
[1] = test system: Lamium purpureum; assay: Pre-emergence test, weed control; details: 3 weeks after treatment, rating 0-100 (100=death), Table 1
Method in brief: (§1)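 Herbicidal effect was scored visually on a 0–100 scale (100 = death, 0 = untreated-like) three weeks after treatment. Soil was horticultural loam sprayed just after sowing with aqueous-diluted acetone/0.4% TRITON X-155 formulations at 15–240 g a.i./ha (900 L/ha).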

[2] = test system: Matricaria inodora; assay: Pre-emergence test, weed control; details: 3 weeks after treatment, rating 0-100 (100=death), Table 1
Method in brief: as §1

[3] = test system: Alopecurus myosuroides; assay: Pre-emergence test, weed control; details: 3 weeks after treatment, rating 0-100 (100=death), Table 1
Method in brief: as §1

[4] = test system: Poa annua; assay: Pre-emergence test, weed control; details: 3 weeks after treatment, rating 0-100 (100=death), Table 1
Method in brief: as §1

[5] = test system: Lolium perenne; assay: Pre-emergence test, weed control; details: 3 weeks after treatment, rating 0-100 (100=death), Table 1
Method in brief: as §1

[6] = test system: Stellaria media; assay: Pre-emergence test, weed control; details: 3 weeks after treatment, rating 0-100 (100=death), Table 1
Method in brief: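 Scores from 0 (growth like untreated control) to 100 (death) were assigned by eye three weeks post-spray, with 10 units approximating a 10% change in effect. Treatment was applied to freshly sown loam at 15 to 240 g active material per hectare.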

[7] = test system: Apera spica-venti; assay: Pre-emergence test, weed control; details: 3 weeks after treatment, rating 0-100 (100=death), Table 1
Method in brief: as §1

[8] = test system: Setaria viridis; assay: Pre-emergence test, weed control; details: 3 weeks after treatment, rating 0-100 (100=death), Table 1
Method in brief: as §1

[9] = test system: Polygonum convolvulus; assay: Pre-emergence test, weed control; details: 3 weeks after treatment, rating 0-100 (100=death), Table 1
Method in brief: as §1

[10] = test system: Galium aparine; assay: Pre-emergence test, weed control; details: 3 weeks after treatment, rating 0-100 (100=death), Table 1
Method in brief: as §1

[11] = test system: Veronica persica; assay: Pre-emergence test, weed control; details: 3 weeks after treatment, rating 0-100 (100=death), Table 1
Method in brief: as §1

[12] = test system: Triticum aestivum variety “Monopol”; assay: Post-emergence test, selectivity; details: 2–4 weeks after treatment, rating 0-100 (100=death), Table 6
Procedure: (§2) These acetone solutions are diluted with water and the resulting formulations applied at dosage levels equivalent of about 0.030 to 0.240 kg per hectare of test compound per pot. After spraying the plants are placed an greenhouse benches and are cared for in the usual manner, commensurate with conventional greenhouse practices. From 2 to 4 weeks after treatment, the seedling plants are examined and rated according to the rating system provided above. A rating 0 indicates growth as untreated control, a rating 100 indicates death.

[13] = test system: Triticum aestivum variety “Kanzler”; assay: Post-emergence test, selectivity; details: 2–4 weeks after treatment, rating 0-100 (100=death), Table 6
Procedure: as §2

[14] = test system: HORVW; assay: Pre-emergence test, selectivity; details: 3 weeks after treatment, rating 0-100 (100=death), Table 2
Method in brief: as §1

[15] = test system: Triticum aestivum variety “Monopol”; assay: Pre-emergence test, selectivity; details: 3 weeks after treatment, rating 0-100 (100=death), Table 2
Method in brief: as §1

[16] = test system: Triticum aestivum variety “Kanzler”; assay: Pre-emergence test, selectivity; details: 3 weeks after treatment, rating 0-100 (100=death), Table 2
Method in brief: as §1

[17] = test system: Hordeum vulgare variety “Mammut”; assay: Pre-emergence test, selectivity; details: 3 weeks after treatment, rating 0-100 (100=death), Table 2
Method in brief: as §1

[18] = test system: wheat; assay: Post-emergence test, tolerance in wheat; details: in vivo
Procedure: as §2

[19] = test system: Setaria viridis; assay: Post-emergence test, weed control; details: 2–4 weeks after treatment, rating 0-100 (100=death), Table 5
Procedure: as §2

## Cc1nc(-c2ccc(C(F)(F)F)cc2)nc(Oc2cccc(C(F)(F)F)c2)c1C [REF-2]
[1]; 0.030 kg/ha
  LAMPU weed control rating: 40
[1]; 0.060 kg/ha
  LAMPU weed control rating: 75
[1]; 0.120 kg/ha
  LAMPU weed control rating: 98
[1]; 0.240 kg/ha
  LAMPU weed control rating: 100
[2]; 0.015 kg/ha
  MATIN weed control rating: 95
[2]; 0.030 kg/ha
  MATIN weed control rating: 98
[2]; 0.060 kg/ha
  MATIN weed control rating: 98
[2]; 0.120 kg/ha
  MATIN weed control rating: 99
[2]; 0.240 kg/ha
  MATIN weed control rating: 99
[3]; 0.015 kg/ha
  ALOMY weed control rating: 0
[3]; 0.030 kg/ha
  ALOMY weed control rating: 5
[3]; 0.060 kg/ha
  ALOMY weed control rating: 15
[3]; 0.120 kg/ha
  ALOMY weed control rating: 65
[3]; 0.240 kg/ha
  ALOMY weed control rating: 70
[4]; 0.015 kg/ha
  POAAN weed control rating: 65
[4]; 0.030 kg/ha
  POAAN weed control rating: 95
[4]; 0.060 kg/ha
  POAAN weed control rating: 97
[4]; 0.120 kg/ha
  POAAN weed control rating: 100
[4]; 0.240 kg/ha
  POAAN weed control rating: 100
[5]; 0.015 kg/ha
  LOLPE weed control rating: 5
[5]; 0.030 kg/ha
  LOLPE weed control rating: 30
[5]; 0.060 kg/ha
  LOLPE weed control rating: 60
[5]; 0.120 kg/ha
  LOLPE weed control rating: 93
[5]; 0.240 kg/ha
  LOLPE weed control rating: 97
[6]; 0.015 kg/ha
  STEME weed control rating: 0
[6]; 0.060 kg/ha
  STEME weed control rating: 20
[6]; 0.120 kg/ha
  STEME weed control rating: 97
[6]; 0.240 kg/ha
  STEME weed control rating: 100
[7]; 0.015 kg/ha
  APESV weed control rating: 80
[7]; 0.030 kg/ha
  APESV weed control rating: 85
[7]; 0.060 kg/ha
  APESV weed control rating: 98
[7]; 0.120 kg/ha
  APESV weed control rating: 100
[7]; 0.240 kg/ha
  APESV weed control rating: 100
[8]; 0.015 kg/ha
  SETVI weed control rating: 65
[8]; 0.060 kg/ha
  SETVI weed control rating: 97
[8]; 0.120 kg/ha
  SETVI weed control rating: 100
[8]; 0.240 kg/ha
  SETVI weed control rating: 100
[9]; 0.015 kg/ha
  POLCO weed control rating: 0
[9]; 0.030 kg/ha
  POLCO weed control rating: 0
[9]; 0.060 kg/ha
  POLCO weed control rating: 0
[9]; 0.120 kg/ha
  POLCO weed control rating: 30
[9]; 0.240 kg/ha
  POLCO weed control rating: 80
[10]; 0.015 kg/ha
  GALAP weed control rating: 0
[10]; 0.030 kg/ha
  GALAP weed control rating: 0
[10]; 0.060 kg/ha
  GALAP weed control rating: 3
[10]; 0.120 kg/ha
  GALAP weed control rating: 5
[10]; 0.240 kg/ha
  GALAP weed control rating: 50
[11]; 0.015 kg/ha
  VERPE weed control rating: 25
[11]; 0.030 kg/ha
  VERPE weed control rating: 99
[11]; 0.060 kg/ha
  VERPE weed control rating: 100
[11]; 0.120 kg/ha
  VERPE weed control rating: 100
[11]; 0.240 kg/ha
  VERPE weed control rating: 100
[12]; 0.03 kg/ha
  TRZAWM rating (Selectivity): 2
[12]; 0.06 kg/ha
  TRZAWM rating (Selectivity): 5
[12]; 0.12 kg/ha
  TRZAWM rating (Selectivity): 8
[12]; 0.24 kg/ha
  TRZAWM rating (Selectivity): 8
[13]; 0.03 kg/ha
  TRZAWK rating (Selectivity): 3
[13]; 0.06 kg/ha
  TRZAWK rating (Selectivity): 5
[13]; 0.12 kg/ha
  TRZAWK rating (Selectivity): 8
[13]; 0.24 kg/ha
  TRZAWK rating (Selectivity): 10
[14]; 0.030 kg/ha
  HORVW rating (Selectivity): 10
[14]; 0.060 kg/ha
  HORVW rating (Selectivity): 10
[14]; 0.120 kg/ha
  HORVW rating (Selectivity): 20
[14]; 0.240 kg/ha
  HORVW rating (Selectivity): 30
[15]; 0.030 kg/ha
  TRZAWM rating (Selectivity): 1
[15]; 0.060 kg/ha
  TRZAWM rating (Selectivity): 1
[15]; 0.120 kg/ha
  TRZAWM rating (Selectivity): 2
[15]; 0.240 kg/ha
  TRZAWM rating (Selectivity): 5
[16]; 0.030 kg/ha
  TRZAWK rating (Selectivity): 1
[16]; 0.060 kg/ha
  TRZAWK rating (Selectivity): 1
[16]; 0.120 kg/ha
  TRZAWK rating (Selectivity): 1
[16]; 0.240 kg/ha
  TRZAWK rating (Selectivity): 5
[17]; 0.030 kg/ha
  HORVWM rating (Selectivity): 3
[17]; 0.060 kg/ha
  HORVWM rating (Selectivity): 5
[17]; 0.120 kg/ha
  HORVWM rating (Selectivity): 18
[17]; 0.240 kg/ha
  HORVWM rating (Selectivity): 25
[18]
  maximum tolerated dose in wheat / dose at which sufficiently selective in wheat: similarly selective in wheat
[19]; 0.030 kg/ha
  SETVI weed control rating: 30
[19]; 0.060 kg/ha
  SETVI weed control rating: 55
[19]; 0.120 kg/ha
  SETVI weed control rating: 96
[19]; 0.240 kg/ha
  SETVI weed control rating: 100

Source: patent US7008905B2, “Method of combating undesired plant growth on cereals” (BASF Aktiengesellschaft, priority 2000, dated 2006)
